From patent publication US11279733B2, “Peptide antibiotics” (priority 2017, dated 2022)
Values after ≈ are worked out from the molar mass of the structure shown. Like-named read-outs stand apart in the source and are kept apart here. Positions of bridges follow the written chain, without caps; N, C: chain ends. Non-standard residues stand in square brackets, D forms with d. Residues, ends and D or L forms follow the SMILES beside them. *: point of attachment. Decanoyl(3R-OH) = CCCCCCC[C@@H](O)CC(=O)*; Decanoyl = CCCCCCCCCC(=O)*; dDab = NCC[C@@H](N)C(=O)O; Dab = NCC[C@H](N)C(=O)O

Assays:
[1] = system: A. baumannii ATCC 19606; settings: ATCC 19606
Experimental: (§1) Bacteria were either obtained from American Type Culture Collection (ATCC; Manassas, Va., USA) or independent academic clinical isolate collections, as listed in Table 18 below. Bacteria were cultured in Nutrient broth (NB; Bacto Laboratories, catalogue No. 234000) or Mueller Hinton broth (MHB; Bacto Laboratories, catalogue No. 211443) at 37° C. overnight with shaking (˜180 RPM). A sample of each culture was then diluted 50-fold in fresh MHB and incubated at 37° C. for 2-3 h with shaking (˜180 RPM). Compound stock solutions were prepared as 0.64 mg/mL or 2.56 mg/mL in water. The compounds, at twice the final desired concentration, were serially diluted 2-fold across the wells of 96-well plates (Polystyrene, Corning, catalogue No. 3370). Mid-log phase bacterial cultures (after 2-3 h incubation) were diluted to a final concentration of 1×10^6 colony forming units (CFU)/mL, and 50 μL was added to each well giving a final cell density of 5×10^5 and a compound concentration range of 32 μg/mL to 0.015 μg/mL (128-0.06 μg/mL against P. aeruginosa PA9704).

[2] = system: A. baumannii GN_093 PmxR; settings: GN 093 PmxR
Experimental: as §1

[3] = system: E. coli ATCC 25922; settings: ATCC 25922
Experimental: as §1

[4] = system: K. pneumoniae ATCC 13883; settings: ATCC 13883
Experimental: as §1

[5] = system: K. pneumoniae ATCC 700603, MDR; settings: ATCC 700603
Experimental: as §1

[6] = system: K. pneumoniae ATCC BAA-2146, NDM-1 pos; settings: ATCC BAA-2146
Experimental: as §1

[7] = system: K. pneumoniae GN_102 PmxR; settings: GN 102 PmxR
Experimental: as §1

[8] = system: K. pneumoniae GN_106, PmxR; settings: GN 106, PmxR
Experimental: as §1

[9] = system: P. aeruginosa ATCC 27853; settings: ATCC 27853
Experimental: as §1

[10] = system: P. aeruginosa GN_043, PmxR
Experimental: as §1

[11] = system: P. aeruginosa GN_105, PmxR; settings: GN 105, PmxR
Experimental: as §1

[12] = system: S. aureus ATCC 25923, MSSA; settings: ATCC 25923
Experimental: as §1

SMILES | MIC A. baumannii ATCC 19606 [1] | MIC, A. baumannii ATCC 19606 [1] | MIC A. baumannii GN_093 PmxR [2] | MIC E. coli ATCC 25922 [3] | MIC, E. coli ATCC 25922 [3] | MIC K. pneumoniae ATCC 13883 [4] | MIC, K. pneumoniae ATCC 13883 [4] | MIC K. pneumoniae ATCC 700603, MDR [5] | MIC, K. pneumoniae ATCC 700603, MDR [5] | MIC K. pneumoniae ATCC BAA-2146, NDM-1 pos [6] | MIC, K. pneumoniae ATCC BAA-2146, NDM-1 pos [6] | MIC K. pneumoniae GN_102 PmxR [7] | MIC K. pneumoniae GN_106, PmxR [8] | MIC P. aeruginosa ATCC 27853 [9] | MIC, P. aeruginosa ATCC 27853 [9] | MIC P. aeruginosa GN_105, PmxR [11] | MIC S. aureus ATCC 25923, MSSA [12] | other results
CCCCCCC[C@@H](O)CC(=O)N[C@H](CCN)C(=O)N[C@H]1CCNC(=O)[C@H](CC(C)C)NC(=O)[C@H](CCN)NC(=O)[C@H](CCN)NC(=O)[C@H](CC(C)C)NC(=O)[C@@H](Cc2ccccc2)NC(=O)[C@H](CCN)NC1=O [Octapeptin C4 (631), 3(R)OH-nC9CO-D-Dab-cyc[L-Dab-L-Dab-D-Phe-L-Leu-L-Dab-L-Dab-L-Leu], reference compound] ({Decanoyl(3R-OH)}-[dDab][Dab][Dab][dF]L[Dab][Dab]L; lactam 2-C) | 4 µg/mL (≈ 3.83 µM) | 4 µg/mL (≈ 3.83 µM) | 4 µg/mL (≈ 3.83 µM) | 4 µg/mL (≈ 3.83 µM) | 4 µg/mL (≈ 3.83 µM) | 8 µg/mL (≈ 7.66 µM) | 8 µg/mL (≈ 7.66 µM) | 8 µg/mL (≈ 7.66 µM) | 8 µg/mL (≈ 7.66 µM) | 8 µg/mL (≈ 7.66 µM) | 8 µg/mL (≈ 7.66 µM) | 2 µg/mL (≈ 1.92 µM) | 4 µg/mL (≈ 3.83 µM) | 2 µg/mL (≈ 1.92 µM) | 2 µg/mL (≈ 1.92 µM) | 2 µg/mL (≈ 1.92 µM) | 16 µg/mL (≈ 15.3 µM) | MIC A. baumannii Cl Ptyela 10073 4512:2, PmxR [2]: 4 µg/mL (≈ 3.83 µM); MIC, A. baumannii Cl Ptyela 10073 4512:2, PmxR [2]: 4 µg/mL (≈ 3.83 µM); MIC K. pneumoniae Cl Koprana 10065 0661:1 PmxR [7]: 2 µg/mL (≈ 1.92 µM); MIC, K. pneumoniae Cl Koprana 10065 0661:1, PmxR [7]: 2 µg/mL (≈ 1.92 µM); MIC K. pneumoniae Cl 183-16357-20352, PmxR [8]: 4 µg/mL (≈ 3.83 µM); MIC, K. pneumoniae Cl 138-16347-20362, PmxR [8]: 4 µg/mL (≈ 3.83 µM); MIC P. aeruginosa GN_043, PmxR [10]: 2 µg/mL (≈ 1.92 µM); MIC P. aeruginosa GN_043, PmxR ([10]; P. aeruginosa GN_043, PmxR): 2 µg/mL (≈ 1.92 µM); MIC, P. aeruginosa FADDI-PA070, PmxR ([10]; Table 5, polymyxin-resistant): 2 µg/mL (≈ 1.92 µM); MIC P. aeruginosa GN_043, PmxR ([10]; polymyxin-resistant): 2 µg/mL (≈ 1.92 µM); MIC, P. aeruginosa FADDI-PA070, PmxR ([10]; strain name as in Table 11): 2 µg/mL (≈ 1.92 µM); MIC P. aeruginosa PA9704, PmxR [11]: 2 µg/mL (≈ 1.92 µM); MIC, P. aeruginosa PA9704, PmxR [11]: 2 µg/mL (≈ 1.92 µM); MIC, S. Aureus ATCC 25923, MSSA [12]: 16 µg/mL (≈ 15.3 µM)
CCCCCCCCCC(=O)N[C@@H](CCN)C(=O)N[C@H]1CCNC(=O)[C@H](CC(C)C)NC(=O)[C@H](CCN)NC(=O)[C@H](CCN)NC(=O)[C@H](CC(C)C)NC(=O)[C@@H](Cc2ccccc2)NC(=O)[C@H](CCN)NC1=O [compound 5568, nC9CO-L-Dab-cyc[L-Dab-L-Dab-D-Phe-L-Leu-L-Dab-L-Dab-L-Leu]] (Decanoyl-[Dab][Dab][Dab][dF]L[Dab][Dab]L; lactam 2-C) |  | 16 µg/mL (≈ 15.6 µM) | >32 µg/mL |  | 8 µg/mL (≈ 7.78 µM) |  | 4 µg/mL (≈ 3.89 µM) |  | 8 µg/mL (≈ 7.78 µM) |  | 8 µg/mL (≈ 7.78 µM) |  | 16 µg/mL (≈ 15.6 µM) |  | 4 µg/mL (≈ 3.89 µM) | 4 µg/mL (≈ 3.89 µM) |  | MIC P. aeruginosa GN_043, PmxR ([10]; Table 6, polymyxin-resistant): 4 µg/mL (≈ 3.89 µM); MIC, S. aureus ATCC 25923, MSSA [12]: 8 µg/mL (≈ 7.78 µM)
CC(=O)N[C@H](CCN)C(=O)N[C@H]1CCNC(=O)[C@H](Cc2c[nH]c3ccccc23)NC(=O)[C@H](CCN)NC(=O)[C@H](CCN)NC(=O)[C@H](CC(C)C)NC(=O)[C@@H](Cc2ccccc2)NC(=O)[C@H](CCN)NC1=O [compound 8981, Ac-D-Dab-cyc[L-Dab-L-Dab-D-Phe-L-Leu-L-Dab-L-Dab-L-Trp]] (Ac-[dDab][Dab][Dab][dF]L[Dab][Dab]W; lactam 2-C) | >32 µg/mL |  | 32 µg/mL (≈ 32.3 µM) | 32 µg/mL (≈ 32.3 µM) |  | >32 µg/mL |  | 16 µg/mL (≈ 16.2 µM) |  | 16 µg/mL (≈ 16.2 µM) |  | >32 µg/mL | >32 µg/mL | 4 µg/mL (≈ 4.04 µM) |  | >32 µg/mL | >32 µg/mL | 
